Measured values from US9169290B2, “Peptides and their use” (priority 2007, dated 2015).
≈ marks a conversion by molar mass, not a printed value. Like-named read-outs stand apart in the source and are kept apart here. Ends that are not written are not given here.

Columns and labels:
[1] = system: C. albicans; assay type: cell-based, Candida albicans
Method: (§1) Broth Dilution Antifungal Susceptibility Testing
(§2) The sensitivity of relevant fungal strains to the peptides was determined using Clinical Laboratory Standard Institute (CLSI; formerly NCCLS) Approved Standards.

[2] = system: Trichophyton rubrum; assay type: cell-based
Method: as §1, §2

[3] = system: Malasezzia furfur; assay type: cell-based; details: Malasezzia furfur strain DSM6170
Method: as §1, §2

[4] = system: C. tropicalis; test: Broth dilution antifungal susceptibility testing of yeasts (CLSI M27-A), MIC; assay type: cell-based, Candida tropicalis; details: C. tropicalis strain ATCC750
Method: as §1
The sensitivity of relevant fungal strains to the peptides was determined using Clinical Laboratory Standard Institute (CLSI; formerly NCCLS) Approved Standards. Fungal susceptibility was tested using “Reference Method for Broth Dilution Antifungal Susceptibility Testing of Filamentous Fungi; Approved Standard M38-P”, and yeast susceptibility was tested using “Reference Method for Broth Dilution Antifungal Susceptibility Testing of Yeasts; Approved Standard—Second Edition M27-A”.

[5] = system: C. parapsilosis; assay type: cell-based, Candida parapsilosis
Method: as §1
The sensitivity of relevant fungal strains to the peptides was determined using Clinical Laboratory Standard Institute (CLSI; formerly NCCLS) Approved Standards. Fungal susceptibility was tested using “Reference Method for Broth Dilution Antifungal Susceptibility Testing of Filamentous Fungi; […];

[6] = system: C. krusei; assay type: cell-based, Candida krusei
Method: as §1, §2

[7] = C. parapsilosis strain ATCC22019
[8] = C. parapsilosis strain ATCC90018

Q: KKKKKKKKK [NP345] was tested. Which MIC [1] did it give?
A: >2048 µM

Q: RRVRR [NP303, RRVRR] was tested. Which “MIC, Candida albicans NCTC3179” value [1] did it give?
A: >2000 µM

Q: What about the MIC [2] of the same compound?
A: >2 µM

Q: Which results are given for `N=C(N)NCCC[C@H](NC(=O)[C@H](CCCNC(=N)N)NC(=O)[C@H](CCCNC(=N)N)NC(=O)[C@H](CCCNC(=N)N)NC(=O)[C@H](CCCNC(=N)N)NC(=O)[C@H](CCCNC(=N)N)NC(=O)[C@H](CCCNC(=N)N)NC(=O)[C@H](CCCNC(=N)N)NC(=O)[C@H](CCCNC(=N)N)NC(=O)[C@H](CCCNC(=N)N)NC(=O)[C@H](CCCNC(=N)N)NC(=O)[C@H](CCCNC(=N)N)NC(=O)[C@@H](N)CCCNC(=N)N)C(=O)O` [NP337]?
A: MIC, Candida albicans ATCC24433 [1]: 2 µM (≈ 4.1 µg/mL); MIC, Candida albicans ATCC90028 [1]: 4 µM (≈ 8.19 µg/mL); MIC, Candida albicans NCTC3179 [1]: 2 µM (≈ 4.1 µg/mL); MIC [3]: 31.25 µM (≈ 64 µg/mL); MIC [4]: 2 µM (≈ 4.1 µg/mL); MIC [5, 7]: 32 µM (≈ 65.6 µg/mL); MIC [5, 8]: 128 µM (≈ 262 µg/mL); MIC ([6]; C. krusei strain ATCC6258): 2 µM (≈ 4.1 µg/mL); MIC ([6]; C. krusei strain NCPF3953): 16 µM (≈ 32.8 µg/mL); MIC, Candida krusei NCPF3953 ([6]; Candida spp. Type Strains MIC Data table, strain NCPF3953): 16 µM (≈ 32.8 µg/mL)

Q: For GKKEKPEKKVKK [NP331], which “MIC, Candida albicans NCTC3179” value [1] is on record?
A: >2000 µM

Q: Which results are given for RRVRRVRR [NP309]?
A: MIC, Candida albicans NCTC3179 [1]: >2000 µM; MIC [2]: >2 µM

Q: How did the MIC [1] turn out when KKKKKKK [NP344, KKKKKKK] was run?
A: >2048 µM

Q: With KLTKPKPQAESKKKKK [NP332] as the compound, how does the “MIC, Candida albicans NCTC3179” value [1] read?
A: >2000 µM

Q: For RRRVRRR [NP306, RRRVRRR], which “MIC, Candida albicans NCTC3179” value [1] is on record?
A: >2000 µM

Q: And the MIC [2]?
A: >2 µM

Q: Which “MIC, Candida albicans NCTC3179” value [1] does the source give for RRVRVRR [NP307, RRVRVRR] here?
A: >2000 µM

Q: And the MIC [2]?
A: >2 µM

Q: For RRWRR [NP322, RRWRR], which “MIC, Candida albicans NCTC3179” value [1] is on record?
A: >2000 µM

Q: What does the source list for RRVRVR [NP304, RRVRVR]?
A: MIC, Candida albicans NCTC3179 [1]: >2000 µM; MIC [2]: >2 µM

Q: KKKKK [NP343, KKKKK] was tested. Which MIC [1] did it give?
A: >2048 µM

Q: Which results are given for `N=C(N)NCCC[C@H](NC(=O)[C@H](CCCNC(=N)N)NC(=O)[C@H](CCCNC(=N)N)NC(=O)[C@H](CCCNC(=N)N)NC(=O)[C@H](CCCNC(=N)N)NC(=O)[C@H](CCCNC(=N)N)NC(=O)[C@H](CCCNC(=N)N)NC(=O)[C@H](CCCNC(=N)N)NC(=O)[C@H](CCCNC(=N)N)NC(=O)[C@H](CCCNC(=N)N)NC(=O)[C@@H](N)CCCNC(=N)N)C(=O)O` [NP350]?
A: MIC [1]: 64 µM (≈ 111 µg/mL); MIC [6]: 8 µM (≈ 13.9 µg/mL)

Q: How did the “MIC, Candida albicans NCTC3179” value [1] turn out when RRRWRRR [NP325, RRRWRRR] was run?
A: >2000 µM

Q: How did the MIC [1] turn out when `N=C(N)NCCC[C@H](NC(=O)[C@H](CCCNC(=N)N)NC(=O)[C@H](CCCNC(=N)N)NC(=O)[C@H](CCCNC(=N)N)NC(=O)[C@H](CCCNC(=N)N)NC(=O)[C@H](CCCNC(=N)N)NC(=O)[C@H](CCCNC(=N)N)NC(=O)[C@H](CCCNC(=N)N)NC(=O)[C@H](CCCNC(=N)N)NC(=O)[C@H](CCCNC(=N)N)NC(=O)[C@H](CCCNC(=N)N)NC(=O)[C@H](CCCNC(=N)N)NC(=O)[C@@H](N)CCCNC(=N)N)C(=O)O` [NP351] was run?
A: 4 µM (≈ 8.19 µg/mL)

Q: And the MIC ([6]; C. krusei strain NCPF3953)?
A: 32 µM (≈ 65.6 µg/mL)

Q: What does the source list for `CC(=O)N[C@H](CCCNC(=N)N)C(=O)N[C@H](CCCNC(=N)N)C(=O)N[C@H](CCCNC(=N)N)C(=O)N[C@H](CCCNC(=N)N)C(=O)N[C@H](CCCNC(=N)N)C(=O)N[C@H](CCCNC(=N)N)C(=O)N[C@H](CCCNC(=N)N)C(=O)N[C@H](CCCNC(=N)N)C(=O)N[C@H](CCCNC(=N)N)C(=O)N[C@H](CCCNC(=N)N)C(=O)N[C@H](CCCNC(=N)N)C(=O)N[C@H](CCCNC(=N)N)C(=O)N[C@H](CCCNC(=N)N)C(N)=O` [NP340, Ac-dRdRdRdRdRdRdRdRdRdRdRdRdR-NH2]?
A: MIC, Candida albicans ATCC90028 [1]: 2 µM (≈ 4.18 µg/mL); MIC [4]: 2 µM (≈ 4.18 µg/mL); MIC [5, 7]: 2 µM (≈ 4.18 µg/mL); MIC [5, 8]: 2 µM (≈ 4.18 µg/mL); MIC ([6]; C. krusei strain ATCC6258): 4 µM (≈ 8.36 µg/mL)

Q: How did the MIC ([1]; C. albicans strain NCTC3179) turn out when KKKKKKKKKKKKKKK [NP348] was run?
A: >2048 µM

Q: With RVRVR [NP301, RVRVR] as the compound, how does the “MIC, Candida albicans NCTC3179” value [1] read?
A: >2000 µM

Q: What about the MIC [2] of the same compound?
A: >2 µM

Q: `N=C(N)NCCC[C@H](NC(=O)[C@H](CCCNC(=N)N)NC(=O)[C@H](CCCNC(=N)N)NC(=O)[C@H](CCCNC(=N)N)NC(=O)[C@H](CCCNC(=N)N)NC(=O)[C@H](CCCNC(=N)N)NC(=O)[C@@H](N)CCCNC(=N)N)C(=O)O` [NP358, RRRRRRR] was tested. Which MIC [1] did it give?
A: >2048 µM

Q: How did the MIC [1] turn out when RRWWRR [NP324, RRWWRR] was run?
A: 1024 µM

Q: What about the “MIC, Candida albicans ATCC24433” value [1] of the same compound?
A: 1024 µM

Q: What about the “MIC, Candida albicans ATCC90028” value [1] of the same compound?
A: 1024 µM

Q: What about the “MIC, Candida albicans NCTC3179” value [1] of the same compound?
A: 1024 µM

Q: And the MIC [6]?
A: 256 µM

Q: And the “MIC, Candida krusei NCPF3953” value [6]?
A: 256 µM

Q: How did the MIC ([1]; C. albicans strain NCTC3179) turn out when KKKKKKKKKKKKK [NP347] was run?
A: >2048 µM

Q: Which results are given for RRVVRR [NP305, RRVVRR]?
A: MIC, Candida albicans NCTC3179 [1]: >2000 µM; MIC [2]: >2 µM
